From PMC9862597, “Anti-Colorectal Cancer Effects of a Novel Camptothecin Derivative PCC0208037 In Vitro and In Vivo” (Pharmaceuticals, 2022)

Columns and labels:
[1] = Pharmacokinetic study, single intravenous dose; settings: for AUCinf / AUClast: n = 3
Protocol: Blood samples were collected at 0.083 h, 0.25 h, 0.5 h, 1 h, 2 h, 4 h, 8 h, and 12 h after administration. Plasma was prepared after centrifugation at 6000× g for 5 min and then stored at −20 °C for further analysis.

[2] = PCC0208037- and CPT-11-induced toxicity in mice; settings: 50 mg/kg/day i.p. for four days
HT-29 cells = test: MTT cell viability assay, HT-29; assay type: cell-based; settings: Homo sapiens; HT-29, MTT, 72 h, n = 3
Protocol: (§1) Cell viability was assessed using the MTT assay, as previously reported. Briefly, colorectal cancer cells (LS180, HCT116, CT-26, and HT-29 cells) were plated onto 96-well plates at 3000 cells per well and incubated overnight. […] Control cells were treated with DMSO at a final concentration of 0.1%. Cells were cultured with the compounds or medium for 72 h. The cells were then treated with MTT. The medium was then decanted, and DMSO was added and shaken until the color reaction was complete. The […] were read using a Molecular Devices SpectraMax M5 (San Jose, CA, USA) at OD570 nm. The half maximal inhibitory concentration (IC50) was calculated.

HCT116 cells = test: MTT cell viability assay, HCT116; assay type: cell-based; settings: Homo sapiens, HCT-116; HCT116, MTT, 72 h, n = 3; read-out: IC50
Protocol: as §1

LS180 cells = test: MTT cell viability assay, LS180; assay type: cell-based; settings: Homo sapiens; LS180, MTT, 72 h, n = 3; read-out: IC50
Protocol: as §1

CT-26 cells = test: MTT cell viability assay, CT-26; assay type: cell-based; settings: Mus musculus, CT26; CT-26, MTT, 72 h, n = 3
Protocol: as §1

LS180 xenograft tumor = test: Subcutaneous LS180 xenograft model; assay type: in vivo, nude mice; settings: PCC0208037 5, 10, 20 mg/kg; CPT-11 10 mg/kg; i.v. once every 3 days
Protocol: To establish xenograft tumor models, RPMI 1640 and Matrigel were mixed at a 1:1 ratio. Colorectal cancer cells (LS180: 5 × 10^6 cells) were added to 0.1 mL of the mixture, and male nude mice were subcutaneously injected with colorectal cancer cells on the right side. […] Tumor volume and animal weight were measured every 3 days and continued until the end of the experiments. All mice were euthanized by cervical dislocation at the end of the experiment, and the xenograft tumors were removed and weighed.
Figure 8 Anti-tumor effect of PCC0208037 in the LS180 xenograft tumor model. (A) Representative tumors removed after the last treatment in each treatment group. (B) Body weight gain curves of mice bearing an LS180 xenograft tumor. (C) Tumor weights in the different groups of mice after 15 d of treatment.

recombinant Topo I = target: T1, recombinant Topo I (Homo sapiens, UniProt P11387); test: Topoisomerase I activity assay (DNA relaxation); assay type: biochemical; settings: PCC0208037 100 and 10 nmol/L, SN-38 100 nmol/L, CPT-11 100 nmol/L; 30 min, 37 °C
T1 construct: purchased TopoGEN, Inc (Buena Vista, CO, USA) TG1018
T1 sequence (P11387 1-765): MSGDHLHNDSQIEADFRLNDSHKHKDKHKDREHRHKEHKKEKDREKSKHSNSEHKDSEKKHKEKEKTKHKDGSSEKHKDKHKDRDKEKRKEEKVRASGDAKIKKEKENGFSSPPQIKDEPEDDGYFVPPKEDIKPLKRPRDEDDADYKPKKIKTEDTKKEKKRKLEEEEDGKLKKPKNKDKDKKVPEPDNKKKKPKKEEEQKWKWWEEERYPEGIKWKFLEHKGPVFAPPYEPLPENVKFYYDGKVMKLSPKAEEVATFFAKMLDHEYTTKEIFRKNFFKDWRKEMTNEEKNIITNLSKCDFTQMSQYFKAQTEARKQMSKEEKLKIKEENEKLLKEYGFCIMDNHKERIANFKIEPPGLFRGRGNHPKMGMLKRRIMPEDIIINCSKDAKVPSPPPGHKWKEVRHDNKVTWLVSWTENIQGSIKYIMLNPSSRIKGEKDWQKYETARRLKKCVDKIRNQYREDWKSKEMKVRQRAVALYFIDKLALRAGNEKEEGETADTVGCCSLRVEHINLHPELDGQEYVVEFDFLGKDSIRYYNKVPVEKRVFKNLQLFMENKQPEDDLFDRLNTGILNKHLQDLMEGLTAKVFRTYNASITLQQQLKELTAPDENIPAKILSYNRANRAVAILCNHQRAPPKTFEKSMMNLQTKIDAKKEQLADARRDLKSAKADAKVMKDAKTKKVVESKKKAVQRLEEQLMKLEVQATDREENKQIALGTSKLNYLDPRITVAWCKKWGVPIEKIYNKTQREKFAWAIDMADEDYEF
Protocol: To determine whether PCC0208037 inhibited Topo I activity, a DNA relaxation assay was conducted. In this assay, supercoiled plasmid DNA was relaxed and nicked by recombinant Topo I, while no nicked DNA would be found when the Topo I enzyme was inhibited.
A Topoisomerase I Drug Screening Kit was used to detect the inhibitory activity of PCC0208037 against Topo I in the cell-free system. 1 IU Topo I and 250 ng of supercoiled plasmid DNA were pre-incubated with DMSO, PCC0208037 (100 nmol/L and 10 nmol/L), SN-38(100 nmol/L), or CPT (100 nmol/L) in a reaction buffer with a final volume of 20 μL and incubated for 30 min at 37 °C; then, the reaction was stopped by the addition of 2 ul of 10% SDS. Then, proteinase K was added to 50 ug/mL, incubated for 15 min at 37 °C, and 0.1 vol. of a loading buffer (0.25% bromophenol blue, 50% glycerol) was added. The supercoiled, relaxed, or nicked DNA was separated by 1% agarose gel in a 1 TAE (Tris-Acetate-EDTA) buffer. Ethidium bromide-stained agarose gel was photographed using Gel Doc XR.
Figure 4 Inhibition of Topo I activity by PCC0208037. […] Plasmid DNA was separated by an agarose gel and stained with ethidium bromide.

[3] = BALB/c, mouse, plasma, iv, 10 mg/kg
[4] = CPT-11 in plasma, 10 mg/kg CPT-11 i.v.
[5] = metabolite SN-38 in plasma after 10 mg/kg CPT-11 i.v.
[6] = metabolite SN-38 in plasma after 10.65 mg/kg PCC0208037 i.v.

Row | Structure (SMILES) | Cmax [1, 3] [ng/mL] | Tmax [1, 3] [h] | AUCinf [1, 4] [H * ng/mL] | AUClast [1, 4] [H * ng/mL] | colorectal tissue histomorphological examination (H&E) ([2]; colon after 7 days) | diarrhea score ([2]; later stage of study, p < 0.05 on 7th day) | mortality ([2]; seven-day observation) | recovery of body weight and food intake decrease ([2]; seven-day observation) | IC50 (HT-29 cells) [µM] | IC50 (HCT116 cells) [µM] | IC50 (LS180 cells) [µM] | IC50 (CT-26 cells) [µM] | effect on body weight of tumor-bearing mice (LS180 xenograft tumor) | AUCinf [1, 5] [H * ng/mL] | AUClast [1, 5] [H * ng/mL] | AUCinf [1, 6] [H * ng/mL] | AUClast [1, 6] [H * ng/mL] | inhibition of Topo I activity (supercoiled plasmid DNA relaxation) (recombinant Topo I)
1 | CCc1c2c(nc3ccc(OC(=O)N4CCC(N5CCCCC5)CC4)cc13)-c1cc3c(c(=O)n1C2)COC(=O)[C@]3(O)CC [CPT-11, Irinotecan] | 481 ± 112 | 3.24 ± 2.19 | 393.1 ± 64.4 | 360.5 ±52.9 | extensive colorectal tissue damage | higher in the CPT-11-treated mice than in the PCC0208037-treated mice | No animal died | no apparent trend of recovery was observed | > 50 | > 50 | 3.17 ± 0.58 | > 50 | significant reduction in body weight |  |  |  |  | 
2 | CCc1c2c(nc3ccc(O)cc13)-c1cc3c(c(=O)n1C2)COC(=O)[C@]3(O)CC [SN-38] |  |  |  |  |  |  |  |  | 0.35 ± 0.02 | 3.58 ± 0.21 | 0.12 ± 0.01 | 0.44 ± 0.66 |  | 431.5 ± 62.5 | 394.6 ± 46.32 | 919.7 ± 176.1 | 905.5 ± 173.7 | Topo I activity was inhibited
